Molecular target: T1, IDE (Rattus norvegicus, UniProt P35559)
T1 construct: hexahistidine (N); made in house; host or cells: Sf9 insect cells (baculovirus, pFastBac HTb)
T1 sequence (P35559 41-1019): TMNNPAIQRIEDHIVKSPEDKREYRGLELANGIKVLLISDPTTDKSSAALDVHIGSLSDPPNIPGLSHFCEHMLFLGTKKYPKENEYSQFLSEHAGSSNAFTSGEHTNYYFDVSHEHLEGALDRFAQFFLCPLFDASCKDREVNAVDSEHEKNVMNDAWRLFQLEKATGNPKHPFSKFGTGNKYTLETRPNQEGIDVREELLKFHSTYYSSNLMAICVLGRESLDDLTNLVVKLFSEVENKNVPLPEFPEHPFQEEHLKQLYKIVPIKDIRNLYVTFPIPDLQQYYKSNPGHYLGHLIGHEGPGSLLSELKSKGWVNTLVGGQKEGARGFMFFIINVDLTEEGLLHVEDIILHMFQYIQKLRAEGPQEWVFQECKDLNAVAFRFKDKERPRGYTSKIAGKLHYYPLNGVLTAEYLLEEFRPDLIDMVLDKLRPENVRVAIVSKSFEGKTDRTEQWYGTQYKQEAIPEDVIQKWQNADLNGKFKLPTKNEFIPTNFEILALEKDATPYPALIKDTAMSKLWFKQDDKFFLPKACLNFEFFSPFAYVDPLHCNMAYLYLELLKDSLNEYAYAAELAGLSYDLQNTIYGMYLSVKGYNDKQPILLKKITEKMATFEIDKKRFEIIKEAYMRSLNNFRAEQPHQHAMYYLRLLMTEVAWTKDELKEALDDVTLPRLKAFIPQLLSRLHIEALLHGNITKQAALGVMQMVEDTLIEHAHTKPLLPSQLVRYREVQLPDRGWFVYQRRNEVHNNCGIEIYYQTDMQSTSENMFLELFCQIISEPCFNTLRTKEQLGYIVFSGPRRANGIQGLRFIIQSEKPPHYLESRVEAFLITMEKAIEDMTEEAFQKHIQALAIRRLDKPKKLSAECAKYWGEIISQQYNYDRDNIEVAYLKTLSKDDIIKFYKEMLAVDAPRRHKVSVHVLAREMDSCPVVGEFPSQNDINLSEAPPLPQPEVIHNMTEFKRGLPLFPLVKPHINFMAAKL
Test: γ-methylene-ATP versus ATP activation of IDE-dependent hydrolysis of Abz-[…]-EDDnp
Format: biochemical
Conditions: 10 μM substrate, compared with ATP
Method: Activity was determined in 50 mM Tris-HCl, pH 7.4 with 10 μM Abz-[…]-EDDnp (SEQ ID NO:3) as substrate and indicated concentrations of ATP or γ-methylene-ATP. Reactions contained 0.1 μg of protein.
IDE activity was determined by measuring the increase in fluorescence that occurs when the enzyme cleaves the internally quenched fluorogenic substrate Abz-[…]-EDDnp (SEQ ID NO:3) at the R—K bond (Song et al., Journal of Biologial Chemistry 276, 1152-1155 (2001)). The reaction was followed on a SpectraMax Gemini XS fluorescence plate reader using an excitation and emission wavelengths of 318 nm and 419 nm, respectively. Initial velocities were determined using SoftMax Pro 4.0 and kinetic constants calculated using GraphPad Prism 4.0. ATPase activity was measured by following Pi release with acid-molybdate as described by Harder et al. (Harder et al., Biochemical Journal 298 (Pt 2), 395-401 (1994)).

## Nc1ncnc2c1ncn2[C@@H]1O[C@H](COP(=O)(O)OP(=O)(O)CP(=O)(O)O)[C@@H](O)[C@H]1O [γ-methylene ATP]
  ability to activate Abz-GGFLRKHGQ-EDDnp hydrolysis by IDE: nearly as well as ATP

Reference: patent publication US8632989B1, “Mutant insulin degrading enzyme and methods of use” (University of Kentucky Research Foundation, priority 2011, dated 2014)
